How the values were obtained:
Blackgrass [1] = assay: post-emergence herbicidal activity, blackgrass; format: in vivo, Aloepecurus myosuroides; details: postemergence, 1.0 kg/ha
Chickweed [2] = assay: post-emergence herbicidal activity, chickweed; format: in vivo, Stellaria media; details: postemergence, 1.0 kg/ha
Morningglory = assay: pre-emergence herbicidal activity, morningglory; format: in vivo, Ipomea lacunosa or Ipomea hederacea; details: preemergence, 1.0 kg/ha
Source text: (§1) The test plants included soybean (Glycine max var. Winchester), field corn (Zea mays var. Pioneer 3732), wheat (Triticum aestivum var. Lew), morning glory (Ipomea lacunosa or Ipomea hederacea), velvetleaf (Abutilon theophrasti), green foxtail (Setaria viridis), Johnsongrass (Sorghum halepense), blackgrass (Aloepecurus myosuroides), common chickweed (Stellaria media), and common cocklebur (Xanthium strumarium L.).
(§2) For pre-emergence testing, two disposable fiber flats (8 cm×15 cm×25 cm) for each rate of application of each candidate herbicide were filled to an approximate depth of 6.5 cm with steam-sterilized sandy loam soil. The soil was leveled and impressed with a template to provide five evenly spaced furrows 13 cm long and 0.5 cm deep in each flat. Seeds of soybean, wheat, corn, green foxtail, and johnsongrass were planted in the furrows of the first flat, and seeds of velvetleaf, morningglory, common chickweed, cocklebur, and blackgrass were planted in the furrows of the second flat. […]
(§3) The pre-emergence flats were initially subjected to a light water spray. […] After 12-17 days, the plants were examined, and the phytotoxicity data were recorded. […]
(§4) Phytotoxicity data are taken as percent control. Percent control is determined by a method similar to the 0 to 100 rating system disclosed in "Research Methods in Weed Science," 2nd ed., B. Truelove, Ed. […]

Wheat [3] = assay: post-emergence herbicidal activity, wheat; format: in vivo, Triticum aestivum var. Lew; details: postemergence, 1.0 kg/ha
Corn [4] = assay: post-emergence herbicidal activity, corn; format: in vivo, Zea mays var. Pioneer 3732; details: postemergence, 1.0 kg/ha
Cocklebur [5] = assay: pre-emergence herbicidal activity, cocklebur; format: in vivo, Xanthium strumarium L.; details: preemergence, 1.0 kg/ha
Source text: as §1, §2, §3, §4

Green foxtail [6] = assay: pre-emergence herbicidal activity, green foxtail; format: in vivo, Setaria viridis; details: preemergence, 1.0 kg/ha
Source text: as §1, §2, §3, §4

Cocklebur [7] = assay: post-emergence herbicidal activity, cocklebur; format: in vivo, Xanthium strumarium L.; details: postemergence, 1.0 kg/ha
Wheat [8] = assay: pre-emergence herbicidal activity, wheat; format: in vivo, Triticum aestivum var. Lew; details: preemergence, 1.0 kg/ha
Source text: as §1, §2, §3, §4

Blackgrass [9] = assay: pre-emergence herbicidal activity, blackgrass; format: in vivo, Aloepecurus myosuroides; details: preemergence, 1.0 kg/ha
Source text: as §1, §2, §3, §4

Chickweed [10] = assay: pre-emergence herbicidal activity, chickweed; format: in vivo, Stellaria media; details: preemergence, 1.0 kg/ha
Source text: as §1, §2, §3, §4

Green foxtail [11] = assay: post-emergence herbicidal activity, green foxtail; format: in vivo, Setaria viridis; details: postemergence, 1.0 kg/ha
Corn [12] = assay: pre-emergence herbicidal activity, corn; format: in vivo, Zea mays var. Pioneer 3732; details: preemergence, 1.0 kg/ha
Source text: as §1, §2, §3, §4

Johnsongrass [13] = assay: post-emergence herbicidal activity, johnsongrass; format: in vivo, Sorghum halepense; details: postemergence, 1.0 kg/ha
Velvetleaf = assay: pre-emergence herbicidal activity, velvetleaf; format: in vivo, Abutilon theophrasti; details: preemergence, 1.0 kg/ha
Source text: as §1, §2, §3, §4

Soybean [14] = assay: post-emergence herbicidal activity, soybean; format: in vivo, Glycine max var. Winchester; details: postemergence, 1.0 kg/ha
Johnsongrass [15] = assay: pre-emergence herbicidal activity, johnsongrass; format: in vivo, Sorghum halepense; details: preemergence, 1.0 kg/ha
Source text: as §1, §2, §3, §4

Soybean [16] = assay: pre-emergence herbicidal activity, soybean; format: in vivo, Glycine max var. Winchester; details: preemergence, 1.0 kg/ha
Source text: as §1, §2, §3, §4

Compound	% CONTROL (Blackgrass [1]) [%]	% CONTROL (Chickweed [2]) [%]	% CONTROL (Morningglory) [%]	% CONTROL (Wheat [3]) [%]	% CONTROL (Corn [4]) [%]	% CONTROL (Cocklebur [5]) [%]	% CONTROL (Green foxtail [6]) [%]	% CONTROL (Cocklebur [7]) [%]	% CONTROL (Wheat [8]) [%]	% CONTROL (Blackgrass [9]) [%]	% CONTROL (Chickweed [10]) [%]	% CONTROL (Green foxtail [11]) [%]	% CONTROL (Corn [12]) [%]	% CONTROL (Johnsongrass [13]) [%]	% CONTROL (Velvetleaf) [%]	% CONTROL (Soybean [14]) [%]	% CONTROL (Johnsongrass [15]) [%]	% CONTROL (Soybean [16]) [%]
CCOC(=O)C(Cl)Cc1cc(-c2nn(C)c(OC(F)F)c2Cl)c(Cl)cc1Cl (stereo not drawn) [Compound 1]	40	100	100	30	60	100	100	100	20	40	100	100	40	100	100	100	80	100
CCOC(=O)C(Cl)Cc1cc(-c2nn(C)c(OC(F)F)c2Cl)c(F)cc1Cl (stereo not drawn) [Compound 2, Ethyl 2-chloro-3-[2-chloro-4-fluoro-5-(4-chloro-5-difluoromethoxy-1-methylpyrazol-3-yl)phenyl]propanoate]	60	100	100	55	90	100	100	100	30	50	100	100	10	90	100	100	70	90
